23 compounds from patent US9206198B2, “Inhibitors of the renal outer medullary potassium channel” (Merck Sharp & Dohme Corp., priority 2012, dated 2015) can be followed below.

For one test, the target named is hROMK (hKir1.1) (Homo sapiens (Human), UniProt P48048). As to the kind of experiment: Thallium Flux Assay (ROMK channel functional thallium flux assay, FLIPR-Tetra). Type of test: cell-based. Particulars: HEK293 cells stably expressing hROMK. The procedure: Cell Culture Conditions— HEK293 cells stably expressing hROMK (hKir1.1) were grown at 37° C. in a 10% CO2 humidified incubator in complete growth media: Dulbecco's Modified Eagle Medium supplemented with non-essential amino acids, Penicillin/Streptomycin/Glutamine, G418 and FBS. At >80% confluency, aspirate the media from the flask and rinse with 10 mL Calcium/Magnesium-free PBS. Add 5 mL of 1× trypsin (prepared in Ca/Mg Free PBS) to T-225 flask and return flask to 37° C./CO2 incubator for 2-3 minutes. To dislodge the cell, gently bang the side of the flask with your hand. Triturate the cells completely and then transfer the cells to 25 mL complete media. Centrifuge at 1,500 rpm for 6 min followed by resuspension in complete growth media and determine cell concentration. For typical re-seeding, 4E6 cells/T-225 flask will attain >80% confluency in 4 days. Under ideal growth conditions and appropriate tissue culture practices, this cell line is stable for 40-45 passages.
FluxOR Kit Components (Invitrogen F10017)
• FluxOR™ Reagent (Component A) • FluxOR™ Assay Buffer (Component B)—10× Concentrate • PowerLoad™ Concentrate (Component C)—100× Concentrate • Probenecid (Component D)—Lyophilized sample is kept at −20° C. Water soluble, 100×after solubilization in 1 mL water. Store at 4° C. • FluxOR™ Chloride-free Buffer (Component E)—5× Concentrate • Potassium sulfate (K2SO4) Concentrate (Component F)—125 mM in water. Store at 4° C. • Thallium sulfate (Tl2SO4) Concentrate (Component G)—50 mM in water. Store at 4° C. • DMSO (dimethyl sulfoxide, Component H)—1 mL (100%) Reagent Preparation: FluxOR Working Solutions • 1000× FluxOR™ Reagent: Reconstitute a vial of component A in 100 μl DMSO; Mix well; Store 10 μl aliquots at −20° C. • 1× FluxOR™ Assay Buffer: Dilute Component B 10-fold with water; Adjust pH to 7.4 with Hepes/NaOH; Filter and store at 4° C. • Probenecid/Assay Buffer: 100 mL of 1× FluxOR™ Assay Buffer; 1 mL of reconstituted component D; Store at 4° C. • Loading Buffer (per microplate): 10 μl 1000× FluxOR™ Reagent; 100 μl component C; 10 mL Probenecid/Assay Buffer • Compound Buffer (per microplate): 20 mL Probenecid/Assay Buffer; 0.3 mM ouabain (10 mM ouabain in water can be stored in amber bottle/aluminum foil at room temperature); Test compound • 1× FluxOR™ Chloride-Free Buffer: Prepare 1× working solution in water. Can be stored at room temperature • Stimulant Buffer (prepared at 5× final concentration in 1× FluxOR™ Chloride-Free Buffer): 7.5 mM Thallium sulfate and 0.75 mM Potassium sulfate (to give a final assay concentration of 3 mM Thallium 0.3 mM Potassium). Store at 4° C. when not in use. If kept sterile, this solution is good for months.
Assay Protocol—The ROMK channel functional thallium flux assay is performed in 384 wells, using the FLIPR-Tetra instrument. HEK-hKir1.1 cells are seeded in Poly-D-Lysine microplates and kept in a 37° C.-10% CO2 incubator overnight. On the day of the experiment, the growth media is replaced with the FluxOR™ reagent loading buffer and incubated, protected from light, at ambient temperature (23-25° C.) for 90 min. The loading buffer is replaced with assay buffer±test compound followed by 30 min incubation at ambient temperature, where the Thallium/Potassium stimulant is added to the microplate.
• 1. Seed HEK-hKir1.1 cells ([…] at 20,000 cells/well) in 384-well PDL coated Microplates • 2. Allow cells to adhere overnight in humidified 37° C./10% CO2 incubator • 3. Completely remove cell growth media from microplate and replace with 25 μl loading buffer • 4. Incubate Microplate at room temperature, protected form light, for 90 min • 5. Remove loading buffer and replace with 25 μl 1× Assay Buffer±test compound. • 6. Incubate microplate at room temperature, protected from light, for 30 min • 7. At FLIPR-Tetra 384: Add stimulant (Thallium/Potassium) solution to microplate and monitor fluorescence. Excitation=400 nm, Emission=460 & 580 nm. Collect data for 10 min.

The target in the next test is Kir1.1 (ROMK1) (Homo sapiens (Human), UniProt P48048). Description: Electrophysiology Assay (whole cell voltage clamp, IonWorks Quattro). Type of test: cell-based. Particulars: Chinese hamster ovary cells stably expressing Kir1.1; block during voltage step to 0 mV. The procedure: Block of Kir1.1 (ROMK1) currents was examined by whole cell voltage clamp (Hamill et. al. Pfluegers Archives 391:85-100 (1981)) using the IonWorks Quattro automated electrophysiology platform (Molecular Devices, Sunnyvale, Calif.). Chinese hamster ovary cells stably expressing Kir1.1 channels were maintained in T-75 flasks in cell culture media in a humidified 10% CO2 incubator at 37° C. Prior to an experiment, Kir1.1 expression was induced by overnight incubation with 1 mM sodium butyrate. On the day of the experiment, cells were dissociated with 2.5 mL of Versene (Invitrogen 15040-066) for approximately 6 min at 37° C. and suspended in 10 mL of bath solution containing (in mM): 150 NaCl, 10 KCl, 2.7 CaCl2, 0.5 MgCl2, 5 HEPES, pH 7.4. After centrifugation, the cell pellet was resuspended in approximately 4.0 mL of bath solution and placed in the IonWorks instrument. The intracellular solution consisted of (in mM): 80 K gluconate, 40 KCl, 20 KF, 3.2 MgCl2, 3 EGTA, 5 Hepes, pH 7.4. Electrical access to the cytoplasm was achieved by perforation in 0.13 mg/mL amphotericin B for 4 min. Amphotericin B (Sigma A-4888) was prepared as a 40 mg/mL solution in DMSO. Voltage protocols and current recordings were performed using the IonWorks HT software/hardware system. Currents were sampled at 1 kHz. No correction for liquid junction potentials was used. The test pulse, consisting of a 100 ms step to 0 mV from a holding potential of −70 mV, followed by a 100 ms voltage ramp from −70 mV to +70 mV, was applied before and after a 6 min compound incubation period. Test compounds were prepared by diluting DMSO stock solutions into the bath solution at 3× the final concentration and placed in the instrument in 96-well polypropylene plates. Current amplitudes were measured using the IonWorks software. To assess compound potency, the fractional block during the voltage step to 0 mV was calculated in Microsoft Excel (Microsoft, Redmond, Calif.), and dose-response curves were fitted with Igor Pro 4.0 (WaveMetrics, Lake Oswego, Oreg.). Normally, a control compound is included to support that the assay is giving consistent results compared to previous measurements, although the control is not required to obtain the results for the test compounds.
In general terms: Patch clamp records ionic current or voltage across a cell membrane.

As usually defined, the IC50 is the concentration at which inhibition is half-maximal.

Each structure is given as a SMILES string.

Chain of Kir1.1 (ROMK1) (P48048 whole entry, species assumed): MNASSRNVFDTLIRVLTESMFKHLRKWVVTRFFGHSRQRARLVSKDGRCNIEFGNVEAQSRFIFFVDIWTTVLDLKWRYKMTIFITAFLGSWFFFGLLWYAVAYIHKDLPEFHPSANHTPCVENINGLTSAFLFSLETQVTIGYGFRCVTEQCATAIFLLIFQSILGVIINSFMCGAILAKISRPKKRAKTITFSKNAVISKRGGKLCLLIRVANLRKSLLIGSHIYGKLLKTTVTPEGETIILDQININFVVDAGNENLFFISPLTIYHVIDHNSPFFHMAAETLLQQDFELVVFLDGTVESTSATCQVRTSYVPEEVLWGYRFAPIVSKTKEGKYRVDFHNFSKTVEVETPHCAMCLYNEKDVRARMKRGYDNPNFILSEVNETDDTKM
Chain of hROMK (hKir1.1) (P48048 whole entry): as the sequence (P48048 whole entry, species assumed) above

In the case of `CC1=C(N2CCC3(CCN(C[C@H](O)c4ccc5c(c4C)COC5=O)CC3)C2=O)COC1=O` [Example 7, 8-[(2R)-2-hydroxy-2-(4-methyl-1-oxo-1,3-dihydro-2-benzofuran-5-yl)ethyl]-2-(4-methyl-5-oxo-2,5-dihydrofuran-3-yl)-2,8-diazaspiro[4.5]decan-1-one], the IC50 is 20 nM on hROMK (hKir1.1) and 10 nM at Kir1.1 (ROMK1).
As to `CC1=C(N2CCCC3(CCN(C[C@H](O)c4ccc5c(c4C)COC5=O)CC3)C2=O)COC1=O` [Example 9, 9-[(2R)-2-hydroxy-2-(4-methyl-1-oxo-1,3-dihydro-2-benzofuran-5-yl)ethyl]-2-(4-methyl-5-oxo-2,5-dihydrofuran-3-yl)-1-oxo-2-aza-9-azoniaspiro[5.5]undecane], the IC50 at hROMK (hKir1.1) and at Kir1.1 (ROMK1) was 10 nM each time.
On to `CO[C@@H](CN1CCC2(CC1)CCN(C1=CC(=O)OC1)C2=O)c1ccc2c(c1C)COC2=O` [Example 51, 8-[(2R)-2-methoxy-2-(4-methyl-1-oxo-1,3-dihydro-2-benzofuran-5-yl)ethyl]-2-(5-oxo-2,5-dihydrofuran-3-yl)-2,8-diazaspiro[4.5]decan-1-one], for which the IC50 against hROMK (hKir1.1) was 310 nM; at Kir1.1 (ROMK1), 20 nM.
Taken in the same sequence, the figures for `Cc1c([C@@H](O)CN2CCC3(CC2)CCN(C2=CC(=O)OC2)C3=O)ccc2c1COC2=O` [Example 5, 8-[(2R)-2-hydroxy-2-(4-methyl-1-oxo-1,3-dihydro-2-benzofuran-5-yl)ethyl]-2-(5-oxo-2,5-dihydrofuran-3-yl)-2,8-diazaspiro[4.5]decan-1-one] were 30 nM and 4 nM.
For `Cc1c([C@@H](O)CN2CCC3(CC2)CCN(C2=C(Cl)C(=O)OC2)C3=O)ccc2c1COC2=O` [Example 25], in that order: 10 nM and 10 nM.
In the case of `Cc1c([C@@H](O)CN2CCC3(CCCN(C4=CC(=O)OC4)C3)CC2)ccc2c1COC2=O` [Example 24], the values for the IC50 against hROMK (hKir1.1) and against Kir1.1 (ROMK1) were 240 nM and 620 nM, respectively.
For the compound `CC1=C(N2CCC3(CCN(CC(O)c4ccc5c(c4Cl)COC5=O)CC3)C2=O)COC1=O` (single isomer, unassigned) [Example 79], the IC50 against hROMK (hKir1.1) was determined as 10 nM; against Kir1.1 (ROMK1), 3 nM.
With `Cc1c([C@@H](O)CN2CCC3(CC2)CCN(C2=C(F)C(=O)OC2)C3=O)ccc2c1COC2=O` [Example 22], the values for the IC50 on hROMK (hKir1.1) and on Kir1.1 (ROMK1) were 30 nM and 4 nM, respectively.
Taken in the same sequence, the figures for `CCc1c(C(O)CN2CCC3(CC2)CCN(C2=C(C)C(=O)OC2)C3=O)ccc2c1COC2=O` (single isomer, unassigned) [Example 75] were 30 nM and 10 nM.
`Cc1c([C@@H](O)CN2CCC3(CC2)CC(C2CC2)N(C2=CC(=O)OC2)C3=O)ccc2c1COC2=O` (single isomer, unassigned) [Example 69]: the IC50 against hROMK (hKir1.1) stood at 20 nM; on Kir1.1 (ROMK1), 30 nM.
For `CCC1CC2(CCN(C[C@H](O)c3ccc4c(c3C)COC4=O)CC2)C(=O)N1C1=CC(=O)OC1` (single isomer, unassigned) [Example 66], in that order: 10 nM and 20 nM.
As for `CC1=C(N2CCC3(CCN(CC(O)c4ccc5c(c4C4CC4)COC5=O)CC3)C2=O)COC1=O` (single isomer, unassigned) [Example 76], the IC50 against hROMK (hKir1.1) and on Kir1.1 (ROMK1) was 10 nM throughout.
On hROMK (hKir1.1), `CC1=C(N2CCC3(CCN(C[C@H](O)c4cc5c(cc4C)C(=O)OC5)CC3)C2=O)COC1=O` [Example 38] displayed an IC50 of 20 nM.
On the same count and under the same terms, the value for `CO[C@@H](CN1CCC2(CC1)CCN(C1=C(C)C(=O)OC1)C2=O)c1ccc2c(c1C)COC2=O` [Example 49, 8-[(2R)-2-methoxy-2-(4-methyl-1-oxo-1,3-dihydro-2-benzofuran-5-yl)ethyl]-2-(4-methyl-5-oxo-2,5-dihydrofuran-3-yl)-1-oxo-2-aza-8-azoniaspiro[4.5]decane] was 40 nM.
Compound `CC1=C(N2C(=O)C3(CCN(C[C@H](O)c4ccc5c(c4C)COC5=O)CC3)CC2C)COC1=O` (single isomer, unassigned) [Example 29] gave an IC50 against hROMK (hKir1.1) of 70 nM.
As to `Cc1c([C@H](O)CN2C3CCC2CC2(CC(C)N(C4=CC(=O)OC4)C2=O)C3)ccc2c1COC2=O` (some centres unmarked) [Example 41], the IC50 at hROMK (hKir1.1) came out at 240 nM.
Same read-out and setting: the value for `CC1=C(N2CCC3(CCN(CC(O)c4ccc5c(c4Cl)COC5=O)CC3)C2=O)COC1=O` (single isomer, unassigned) [Example 78] was 270 nM; that for `CC1=C(N2CCC3(CCN(C(CO)Cc4ccc5c(c4C)COC5=O)CC3)C2=O)COC1` (single isomer, unassigned) [Example 84B] was 70 nM.
Same read-out and setting: the value for `CCC1CC2(CCN(C[C@H](O)c3ccc4c(c3C)COC4=O)CC2)C(=O)N1C1=CC(=O)OC1` (single isomer, unassigned) [Example 67] was 20 nM.
Still for that read-out and setting: under `CC1=C(N2CCC3(CCN(CC(O)c4ccc5c(c4F)COC5=O)CC3)C2=O)COC1=O` (single isomer, unassigned) [Example 81] stands 190 nM; under `CC1=C(N2CCC3(CCN(C(C)(C)C(O)c4ccc5c(c4C)COC5=O)CC3)C2=O)COC1=O` (single isomer, unassigned) [Example 85B], 10 nM.
The compound `CCO[C@@H](CN1CCC2(CC1)CCN(C1=C(C)C(=O)OC1)C2=O)c1ccc2c(c1C)COC2=O` [Example 50, 8-[(2R)-2-ethoxy-2-(4-methyl-1-oxo-1,3-dihydro-2-benzofuran-5-yl)ethyl]-2-(4-methyl-5-oxo-2,5-dihydrofuran-3-yl)-2,8-diazaspiro[4.5]decan-1-one] registered an IC50 at hROMK (hKir1.1) of 30 nM.
The same measure, in the same setting: the value for `Cc1c([C@@H](O)CN2C3CCC2CC2(CC(C)N(C4=CC(=O)OC4)C2=O)C3)ccc2c1COC2=O` (single isomer, unassigned) [Example 40] was 20 nM.
